In patent publication EP0735879B1, “USE OF AMINO CYCLODEXTRINS FOR THE AQUEOUS SOLUBILISATION OF DIBENZAZEPINES FOR USE AS AN ANTIEPILEPTIC AGENT” (COMMISSARIAT A L'ENERGIE ATOMIQUE, priority 1993, dated 1995):
Values after ≈ are worked out from the molar mass of the structure shown. Values joined by “and” are separate entries in the source; they are usually repeats but may differ in a detail not shown here. Identical values can stand only once.

Assays:
in vitro = conditions: human, erythrocytes, pH 7
Experimental: Les propriétés hémolytiques du chlorhydrate ont été testées en mettant en contact 0,4 ml d'une suspension d'érythrocytes humains avec 4 ml de la solution du chlorhydrate dans 10 mmol d'un tampon phosphate isotonique à un pH de 7,4, pendant 30 minutes à 37°C.

[1] = Solubility in water of the cyclodextrin; assay type: physicochemical; conditions: 20°C, read-out: solubilité dans l'eau
[2] = pH of an aqueous solution of the hydrochloride; assay type: physicochemical; conditions: solution à 1 % en poids du chlorhydrate dans de l'eau
[3] = tested on: rat Sprague-Dawley mâle et femelle; experiment: Acute toxicity, intravenous injection; assay type: in vivo; conditions: voie intraveineuse, chlorhydrate, 2g/kg de poids corporel
Escherichia Coli = experiment: Ames test, mutagenicity; assay type: cell-based; conditions: test de AMES, souches d'Escherichia Coli
Salmonella typhimurium = experiment: Ames test, mutagenicity; assay type: cell-based; conditions: test de AMES, souches de Salmonella typhimurium
physchem = assay type: physicochemical; conditions: 25°C, read-out: solubilité de la carbamazépine
Experimental: Dans cet exemple on évalue la solubilisation de la carbamazépine par différents dérivés de cyclodextrines dans des conditions standardisées. Les mesures de solubilité sont réalisées à 25°C en présence de la cyclodextrine considérée à la concentration de 25 mmol/l, le pH de la solution étant ajusté dans tous les cas à 7,4 pour simuler autant que posible les conditions physiologiques.

[4] = 25°C; cited from earlier work

SMILES | HC50 at 0.5 h (in vitro) | solubility [1] [mg/mL] | pH [2] | mortalité [3] | activité mutagène (Escherichia Coli) | activité mutagène (Salmonella typhimurium) | solubility (physchem; phosphate buffer, pH 7.4, aqueous buffer, Tampon Phosphate 7,4, without cyclodextrin) [µM] | solubility (physchem; pure water, water, Eau pure, without cyclodextrin) [µM] | solubilité dans l'eau pure [4] [µg/mL]
OC[C@H]1O[C@@H]2O[C@H]3[C@H](O)[C@@H](O)[C@@H](O[C@H]4[C@H](O)[C@@H](O)[C@@H](O[C@H]5[C@H](O)[C@@H](O)[C@@H](O[C@H]6[C@H](O)[C@@H](O)[C@@H](O[C@H]7[C@H](O)[C@@H](O)[C@@H](O[C@H]8[C@H](O)[C@@H](O)[C@@H](O[C@H]1[C@H](O)[C@H]2O)O[C@@H]8CO)O[C@@H]7CO)O[C@@H]6CO)O[C@@H]5CO)O[C@@H]4CO)O[C@@H]3CO [β-CD, β-cyclodextrine, reference compound] | 5 mM and ~6000 µg/mL | – | – | – | – | – | – | – | –
NC[C@H]1O[C@@H]2O[C@H]3[C@H](O)[C@@H](O)[C@@H](O[C@H]4[C@H](O)[C@@H](O)[C@@H](O[C@H]5[C@H](O)[C@@H](O)[C@@H](O[C@H]6[C@H](O)[C@@H](O)[C@@H](O[C@H]7[C@H](O)[C@@H](O)[C@@H](O[C@H]8[C@H](O)[C@@H](O)[C@@H](O[C@H]1[C@H](O)[C@H]2O)O[C@@H]8CO)O[C@@H]7CO)O[C@@H]6CO)O[C@@H]5CO)O[C@@H]4CO)O[C@@H]3CO [β-CD-NH2, mono-6-amino-β-cyclodextrine] | ~30 mM and ~35000 µg/mL | 200 (≈ 176 mM) | 6,8 | aucune mortalité | aucune activité mutagène | aucune activité mutagène | – | – | –
NC(=O)N1c2ccccc2C=Cc2ccccc21 [Carbamazépine, carbamazépine] | – | – | – | – | – | – | < 70 | < 50 | 12
